Measurements as given in patent US4971965A, “Antibiotics TAN-1057” (Takeda Chemical Industries, Ltd., priority 1988, dated 1990).
Converted amounts (≈) assume the structure as drawn. Where two headings read alike, the source gives them in different places.

Experiments:
[1] = system: Bacteroides fladilis ATCC 2509; assay: MIC against anaerobic bacteria (Table 3); type: cell-based; conditions: ATCC2509, 10^6 CFU/ml, GAM medium, Gas Pack, 37° C., 18 hours
[2] = system: Bacteroides thermophilis PNA-1-24; assay: MIC against anaerobic bacteria (Table 3); type: cell-based; conditions: PNA124, 10^6 CFU/ml, GAM medium, Gas Pack, 37° C., 18 hours
[3] = system: Salmonella typhimurium IFO 12529; assay: Antibacterial activity (broth dilution MIC, Table 1); type: cell-based; conditions: Salmonella enterica
Protocol: (§1) The biological activities of TAN-1057 are described as follows.
(§2) (Note 1) Measurement was conducted by employing a medium consisting of
(§3) Bacto Antibiotic Medium 3 (Difco Laboratories, USA)(17.5 g), Bacto yeast
(§4) extract(Difco Laboratories, USA)(5.0 g) and distilled water(pH
(§5) […])(1000 ml), using approximately 10^5 colony forming unit/ml
(§6) of inoculum, by means of the broth dilution method.

[4] = system: Escherichia coli NIHJ JC 2; assay: as above; type: cell-based
Protocol: as §1, §2, §3, §4, §5, §6

[5] = system: Acinetobacter calcoaceticus IFO 13006; assay: as above; type: cell-based
Protocol: as §1, §2, §3, §4, §5, §6

[6] = system: Escherichia coli LD-2; assay: as above; type: cell-based
Protocol: as §1, §2, §3, §4, §5, §6

[7] = system: Acinetobacter calcoaceticus IFO 12552; assay: as above; type: cell-based
Protocol: as §1, §2, §3, §4, §5, §6

[8] = system: Klebsiella pnemoniae IFO 3317; assay: as above; type: cell-based
Protocol: as §1, §2, §3, §4, §5, §6

[9] = system: Micrococcus luteus IFO 12708; assay: as above; type: cell-based
Protocol: as §1, §2, §3, §4, §5, §6

[10] = system: Pseudomonas aeruginosa IFO 3080; assay: as above; type: cell-based
Protocol: as §1, §2, §3, §4, §5, §6

[11] = system: Proteus vulgaris IFO 3988; assay: as above; type: cell-based
Protocol: as §1, §2, §3, §4, §5, §6

[12] = system: Bacillus megaterium IFO 12108; assay: as above; type: cell-based; conditions: Priestia megaterium
Protocol: as §1, §2, §3, §4, §5, §6

[13] = system: Bacillus subtilis NIHJ PCI 219; assay: as above; type: cell-based
Protocol: as §1, §2, §3, §4, §5, §6

[14] = system: Aeromonas caviae NCW; assay: as above; type: cell-based
Protocol: as §1, §2, §3, §4, §5, §6

[15] = system: Staphylococcus epidermidis IFO 3762; assay: as above; type: cell-based
Protocol: as §1, §2, §3, §4, §5, §6

[16] = system: Pseudomonas aeruginosa PAO-8; assay: as above; type: cell-based
Protocol: as §1, §2, §3, §4, §5, §6

[17] = system: Bacillus cereus FDA 5; assay: as above; type: cell-based
Protocol: as §1, §2, §3, §4, §5, §6

[18] = system: Staphylococcus aureus FDA 209P; assay: as above; type: cell-based; conditions: FDA209P
Protocol: as §1, §2, §3, §4, §5, §6

[19] = system: Streptococcus faecalis IFO 3989; assay: as above; type: cell-based; conditions: Enterococcus faecalis
Protocol: as §1, §2, §3, §4, §5, §6

[20] = system: Eubacterium sp. biurens 515; assay: MIC against anaerobic bacteria (Table 3); type: cell-based; conditions: 10^6 CFU/ml, GAM medium, Gas Pack, 37° C., 18 hours
Protocol: (§7) Inoculum size: 10^6 CFU/ml
(§8) ^Note 1 GAM medium(Nissui),
(§9) Gas Pack (BBL), 37° C., 18 hours

[21] = system: Lactobacillus acidophilus ATCC 4356; assay: MIC against anaerobic bacteria (Table 3); type: cell-based; conditions: ATCC4356, 10^6 CFU/ml, GAM medium, Gas Pack, 37° C., 18 hours
Protocol: as §7, §8, §9

[22] = system: Fusobacterium necroform VPI 2891; assay: MIC against anaerobic bacteria (Table 3); type: cell-based; conditions: VPI2891, 10^6 CFU/ml, GAM medium, Gas Pack, 37° C., 18 hours
Protocol: as §7, §8, §9

[23] = system: Peptostreptococcus anaerobium B-40; assay: MIC against anaerobic bacteria (Table 3); type: cell-based; conditions: B40, 10^6 CFU/ml, GAM medium, Gas Pack, 37° C., 18 hours
[24] = system: Mycoplasma garisepticum S6; assay: MIC against Mycoplasma (Table 3); type: cell-based; conditions: S6, 120 h, 10^6 CFU/ml, Hayflick medium, 37° C., 5 days
Source text: | Inoculum size: 10^6 CFU/ml

[25] = system: Treponema hyodicenterie 78/A; assay: MIC against Spirochaeta (Table 3); conditions: 48 h
[26] = pH 7, read-out: Minimum Inhibitory Conc. (MIC)
[27] = pH 5, broth dilution, read-out: Minimum Inhibitory Conc. (MIC)
[28] = pH 9, broth dilution, read-out: Minimum Inhibitory Conc. (MIC)

Structure (SMILES): CN(C(=O)C[C@@H](N)CCCNC(=N)N)[C@H]1CNC(NC(N)=O)=NC1=O [TAN-1057A]
- MIC [1]: 50 µg/mL (≈ 141 µM)
- MIC [2]: 0.78 µg/mL (≈ 2.19 µM)
- MIC ([3]; pH 5, read-out: Minimum Inhibitory Conc. (MIC)): > 100 µg/mL
- MIC [3, 26]: > 100 µg/mL
- MIC ([3]; pH 9, read-out: Minimum Inhibitory Conc. (MIC)): 25 µg/mL (≈ 70.3 µM)
- MIC ([4]; NIHJJC2, pH 5, read-out: Minimum Inhibitory Conc. (MIC)): > 100 µg/mL
- MIC ([4]; NIHJJC2, pH 7, read-out: Minimum Inhibitory Conc. (MIC)): > 100 µg/mL
- MIC ([4]; NIHJJC2, pH 9, read-out: Minimum Inhibitory Conc. (MIC)): 25 µg/mL (≈ 70.3 µM)
- MIC ([5]; IFO13006, pH 5, broth dilution, read-out: Minimum Inhibitory Conc. (MIC)): 1.56 µg/mL (≈ 4.39 µM)
- MIC ([5]; IFO13006, pH 7, read-out: Minimum Inhibitory Conc. (MIC)): 6.25 µg/mL (≈ 17.6 µM)
- MIC ([5]; IFO13006, pH 9, broth dilution, read-out: Minimum Inhibitory Conc. (MIC)): 1.56 µg/mL (≈ 4.39 µM)
- MIC ([6]; LD2, pH 5, read-out: Minimum Inhibitory Conc. (MIC)): 100 µg/mL (≈ 281 µM)
- MIC ([6]; LD2, pH 7, read-out: Minimum Inhibitory Conc. (MIC)): 25 µg/mL (≈ 70.3 µM)
- MIC ([6]; LD2, pH 9, read-out: Minimum Inhibitory Conc. (MIC)): 1.56 µg/mL (≈ 4.39 µM)
- MIC ([7]; IFO12552, pH 5, read-out: Minimum Inhibitory Conc. (MIC)): 12.5 µg/mL (≈ 35.2 µM)
- MIC ([7]; IFO12552, pH 7, read-out: Minimum Inhibitory Conc. (MIC)): 6.25 µg/mL (≈ 17.6 µM)
- MIC ([7]; IFO12552, pH 9, broth dilution, read-out: Minimum Inhibitory Conc. (MIC)): 1.56 µg/mL (≈ 4.39 µM)
- MIC ([8]; IFO3317, pH 5, read-out: Minimum Inhibitory Conc. (MIC)): > 100 µg/mL
- MIC ([8]; IFO3317, pH 7, read-out: Minimum Inhibitory Conc. (MIC)): > 100 µg/mL
- MIC ([8]; IFO3317, pH 9, read-out: Minimum Inhibitory Conc. (MIC)): 100 µg/mL (≈ 281 µM)
- MIC ([9]; IFO12708, pH 7, read-out: Minimum Inhibitory Conc. (MIC)): 1.56 µg/mL (≈ 4.39 µM)
- MIC ([9]; IFO12708, pH 9, read-out: Minimum Inhibitory Conc. (MIC)): 0.2 µg/mL (≈ 0.563 µM)
- MIC ([10]; IFO3080, pH 5, read-out: Minimum Inhibitory Conc. (MIC)): > 100 µg/mL
- MIC ([10]; IFO3080, pH 7, read-out: Minimum Inhibitory Conc. (MIC)): > 100 µg/mL
- MIC ([10]; IFO3080, pH 9, read-out: Minimum Inhibitory Conc. (MIC)): 100 µg/mL (≈ 281 µM)
- MIC ([11]; IFO3988, pH 5, read-out: Minimum Inhibitory Conc. (MIC)): > 100 µg/mL
- MIC ([11]; IFO3988, pH 7, read-out: Minimum Inhibitory Conc. (MIC)): > 100 µg/mL
- MIC ([11]; IFO3988, pH 9, read-out: Minimum Inhibitory Conc. (MIC)): 50 µg/mL (≈ 141 µM)
- MIC ([12]; IFO12108, pH 7, read-out: Minimum Inhibitory Conc. (MIC)): 12.5 µg/mL (≈ 35.2 µM)
- MIC ([12]; IFO12108, pH 5, broth dilution, read-out: Minimum Inhibitory Conc. (MIC)): 25 µg/mL (≈ 70.3 µM)
- MIC ([12]; IFO12108, pH 9, broth dilution, read-out: Minimum Inhibitory Conc. (MIC)): 1.56 µg/mL (≈ 4.39 µM)
- MIC [13, 27]: 50 µg/mL (≈ 141 µM)
- MIC [13, 26]: 12.5 µg/mL (≈ 35.2 µM)
- MIC [13, 28]: 1.56 µg/mL (≈ 4.39 µM)
- MIC [14, 27]: 100 µg/mL (≈ 281 µM)
- MIC [14, 26]: 6.25 µg/mL (≈ 17.6 µM)
- MIC [14, 28]: 1.56 µg/mL (≈ 4.39 µM)
- MIC ([15]; IFO3762, pH 5, read-out: Minimum Inhibitory Conc. (MIC)): > 100 µg/mL
- MIC ([15]; IFO3762, pH 7, read-out: Minimum Inhibitory Conc. (MIC)): 1.56 µg/mL (≈ 4.39 µM)
- MIC ([15]; IFO3762, pH 9, read-out: Minimum Inhibitory Conc. (MIC)): < 0.1 µg/mL
- MIC ([16]; PAO8, pH 5, read-out: Minimum Inhibitory Conc. (MIC)): 100 µg/mL (≈ 281 µM)
- MIC ([16]; PAO8, pH 7, read-out: Minimum Inhibitory Conc. (MIC)): > 100 µg/mL
- MIC ([16]; PAO8, pH 9, read-out: Minimum Inhibitory Conc. (MIC)): 100 µg/mL (≈ 281 µM)
- MIC ([17]; FDA5, pH 5, read-out: Minimum Inhibitory Conc. (MIC)): 6.25 µg/mL (≈ 17.6 µM)
- MIC ([17]; FDA5, pH 7, broth dilution, read-out: Minimum Inhibitory Conc. (MIC)): 25 µg/mL (≈ 70.3 µM)
- MIC ([17]; FDA5, pH 9, read-out: Minimum Inhibitory Conc. (MIC)): 3.13 µg/mL (≈ 8.81 µM)
- MIC [18, 26]: 3.13 µg/mL (≈ 8.81 µM)
- MIC [18, 28]: < 0.1 µg/mL
- MIC ([19]; IFO3989, pH 7, read-out: Minimum Inhibitory Conc. (MIC)): 12.5 µg/mL (≈ 35.2 µM)
- MIC ([19]; IFO3989, pH 9, read-out: Minimum Inhibitory Conc. (MIC)): 3.13 µg/mL (≈ 8.81 µM)
- MIC ([19]; IFO3989, pH 5, broth dilution, read-out: Minimum Inhibitory Conc. (MIC)): > 100 µg/mL
- MIC [20]: 12.5 µg/mL (≈ 35.2 µM)
- MIC [21]: 6.25 µg/mL (≈ 17.6 µM)
- MIC [22]: 3.13 µg/mL (≈ 8.81 µM)
- MIC [23]: 25 µg/mL (≈ 70.3 µM)
- MIC [24]: 3.13 µg/mL (≈ 8.81 µM)
- MIC [25]: 100 µg/mL (≈ 281 µM)
